The text below walks through data of patent publication US20120270900A1, “NOVEL METHOD OF TREATMENT” (Topo Target A/S, priority 2009, published 2012).

A word on the MTD: it is the highest dose tested that stayed within the study's limit of toxicity. A high value points to better tolerability. As usually defined, the IC50 is the concentration that gives 50% inhibition. The low end stands for inhibition by little substance, the high end for a need for much substance.

Data set [1] concerns ovarian cancer cell line A2780. The experiment in a line: CellTiterGlo luminescent cell viability assay. It counts as cell-based. To be noted: 3 days treatment, 1 mM nicotinic acid. The procedure: FIG. 7 illustrates cell viability in the ovarian cancer cell line A2780 measured by CellTiterGlo® after 3 days of CHS-828 treatment with and without 1 mM nicotinic acid added to the medium.
(§1) CellTiterGlo® luminescent cell viability assay: Cells were plated in opaque 96-well plates (5,000 cells/well) 24 hours before use and then incubated with drug for 72 hours at the indicated concentrations with or without nicotinic acid (Invitrogen) added to the media. The CellTiterGlo® assay (Promega) was performed according to the manufacturer's instructions and bioluminescence was measured. Analysis and determination of IC50 values were performed by Prizm.
In general terms: In ATP-based viability assays light output follows the ATP content of the culture.

Data set [2] relates to small cell lung cancer cell line NYH. The experiment in a line: CellTiterGlo luminescent cell viability assay. The class given is cell-based. To be noted: 3 days treatment, 1 mM nicotinic acid. As for the experimental part: FIG. 9 illustrates cell viability in the small cell lung cancer cell line NYH measured by CellTiterGlo® after 3 days of compound 1050 treatment with and without 1 mM nicotinic acid added to the medium.
as §1

For data set [3], the system named is colon cancer cell line HCT116. The experiment in a line: CellTiterGlo luminescent cell viability assay. The note with it: 3 days treatment, varying concentrations of nicotinic acid. It counts as cell-based. The procedure: FIG. 8 illustrates cell viability in the colon cancer cell line HCT116 measured by CellTiterGlo® after 3 days of compound 1050 treatment with and without varying concentrations of nicotinic acid added to the medium.
as §1

For data set [4] the following is noted: APO866 40 mg/kg i.p. x2/day for 4 days, nicotinic acid 20 mg/kg x1/day p.o. for five days; last treatment day.
Data set [5] in a line: Survival of mice under high dose APO866 with or without oral nicotinic acid. The class given is in vivo. The procedure:
FIG. 2 illustrates the cumulative survival of mice in response to high dose APO866 treatment. Treatment is 60 mg APO866 twice/day for 4 days. NA=nicotinic acid.

Data set [6] concerns panel of cell lines of different origin. The experiment in a line: Clonogenic assay, continuous APO866 treatment, panel of cell lines. The class given is cell-based. As for the experimental part: (§2) Clonogenic assay: Cells were incubated with APO866 at different concentrations with or without 100 μM nicotinic acid and seeded out on semi-solid agar matrix with sheep red blood cells and growth medium. Following a 3-week incubation period, the colonies were counted and % survival relative to control (untreated) cells was calculated. IC50 values were calculated on basis of survival at different concentrations of APO866.
Supplement of nicotinic acid to the growth medium can protect against the cytotoxic effects of inhibitors of nicotinamide phosphoribosyltransferase (NAMPRT), including APO866, by synthesizing nicotine adenine dinucleotide (NAD) by an alternative pathway. A cancer cell line, HEPG2, has been shown not to be able to utilize nicotinic acid for NAD synthesis (Cancer Res. 2003 Nov. 1; 63(21):7436-42). We investigated the protective effect of nicotinic acid against APO866 induced cell death in a panel of cell lines of different origin. […] We used continuous treatment with APO866 in a clonogenic assay. Two cell lines, A2780 and NYH were not protected against APO866 when incubated in a medium containing 100 μM nicotinic acid (Table 1). ML-2, HCT-116 and A431 cells display an increase of IC50 values of more than 40-90 fold in nicotinic acid containing medium compared to standard medium. […]

The subject of another data set is myeloma. To be noted: unless nicotinic acid is given 24 hours after the NAMPRTi; Beauparlant et al.; cited from earlier work.
In a further data set the target is T1, NAPRT (Homo sapiens, UniProt Q6XQN6).
T1 sequence (Q6XQN6 1-538): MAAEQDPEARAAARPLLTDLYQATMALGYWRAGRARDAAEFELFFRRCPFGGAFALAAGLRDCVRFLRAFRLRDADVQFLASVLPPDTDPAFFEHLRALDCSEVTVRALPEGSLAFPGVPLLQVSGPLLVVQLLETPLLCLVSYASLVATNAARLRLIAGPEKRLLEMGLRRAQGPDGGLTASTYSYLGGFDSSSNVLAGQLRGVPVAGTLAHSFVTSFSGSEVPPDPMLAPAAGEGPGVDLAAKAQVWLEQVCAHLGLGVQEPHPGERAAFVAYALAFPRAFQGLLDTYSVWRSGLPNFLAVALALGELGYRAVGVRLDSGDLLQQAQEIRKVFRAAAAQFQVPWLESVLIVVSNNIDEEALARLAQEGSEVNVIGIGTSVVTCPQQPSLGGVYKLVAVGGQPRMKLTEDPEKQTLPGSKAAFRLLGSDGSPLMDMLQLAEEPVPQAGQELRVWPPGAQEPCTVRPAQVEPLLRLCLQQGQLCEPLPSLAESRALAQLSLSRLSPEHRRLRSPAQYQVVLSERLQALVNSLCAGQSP
The note with it: cited from earlier work.

The test system of the next data set is PC-3 cells. The experiment in a line: LD50 of APO866 in PC-3 cells with and without nicotinic acid. It counts as cell-based.
The subject of a further data set is A2780 xenografts. The experiment in a line: Subcutaneous A2780 xenograft study. The procedure:
FIG. 4 illustrates the cumulative survival of mice with subcutaneous A2780 xenografts: Time used for each individual mouse's tumour to reach a size of 800 mm3. The mice were treated i.p. with doses of 15 or 50 mg/kg APO866×2/day in two weekly 4-day cycles combined with vehicle p.o. or 50 mg/kg nicotinic acid (NA). Legend on the figure: The p-values of log-rank analysis comparing the individual groups are shown on the figure.
(§3) Mouse studies: In toxicity and xenograft studies NMRI mice and nude mice, respectively, were treated once daily p.o. with 0.5% HPMC in water or nicotinic acid in the same vehicle combined with two daily injections of APO866 in PBS/saline with 3% HPβCD. The mice were treated in two weekly four-day cycles.
(§4) In xenograft studies, 10^7 cancer cells were injected s.c. in a mixture of PBS/matrigel in nude athymic mice.
(§5) We investigated the in vivo rescue effects of nicotinic acid on nude mice carrying xenograft tumours of A2780 and ML-2 cells. APO866 was given twice daily in weekly four-day cycles for two weeks starting when tumours had reached a size of 100 mm^3.

The subject of another data set is ML-2. The experiment in a line: Clonogenic assay, APO866 with or without 100 μM nicotinic acid. It counts as cell-based. The procedure: as §2
(§6) Supplement of nicotinic acid to the growth medium can protect against the cytotoxic effects of inhibitors of nicotinamide phosphoribosyltransferase (NAMPRT), including APO866, by synthesizing nicotine adenine dinucleotide (NAD) by an alternative pathway. A cancer cell line, HEPG2, has been shown not to be able to utilize nicotinic acid for NAD synthesis (Cancer Res. 2003 Nov. 1; 63(21):7436-42). We investigated the protective effect of nicotinic acid against APO866 induced cell death in a panel of cell lines of different origin. […] We used continuous treatment with APO866 in a clonogenic assay. Two cell lines, A2780 and NYH were not protected against APO866 when incubated in a medium containing 100 μM nicotinic acid (Table 1). ML-2, HCT-116 and A431 cells display an increase of IC50 values of more than 40-90 fold in nicotinic acid containing medium compared to standard medium. Addition of 100 μM nicotinic acid to the medium had in itself no effect on the survival of the cells (data not shown)

The subject of the next data set is HCT-116. The data set is described as above. The class given is cell-based. As for the experimental part:
as §2, §6

The subject of the next data set is NYH. Described as above. It counts as cell-based. As for the experimental part:
as §2, §6

The next data set has as its system A2780. The data set is described as above. It counts as cell-based. As for the experimental part: as §2, §6
A further data set deals with A431. Described as above. The class given is cell-based. As for the experimental part: as §2, §6
For another data set, the system named is primary lymphocytes. To be noted: cited from earlier work.
A further data set has as its system ML-2 xenografts. The experiment in a line: Subcutaneous ML-2 xenograft study. As for the experimental part: FIG. 5 illustrates the cumulative survival of mice with subcutaneous ML-2 xenografts: Time used for each individual mouse's tumour to reach a size of 800 mm3. The mice were treated i.p. with doses of 15 or 50 mg/kg APO866×2/day in two weekly 4-day cycles combined with vehicle p.o. or 50 mg/kg nicotinic acid (NA). Legend on the figure: The p-values of log-rank analysis comparing the individual groups are shown on the figure.
as §3, §4, §5

Data set [7] can be described thus: Maximally tolerated dose of APO866 in mice. The note with it: mouse, in vivo, intraperitoneal; twice a day; Balb/c nude mice; data not shown.
The test system of a further data set is primary intestinal cells. To be noted: cited from earlier work.
The next data set relates to leukemic cells. The note with it: WO 1999/053920; cited from earlier work.
The mark [8] stands for this setting: 60 mg/kg APO866 twice daily on four consecutive days, vehicle p.o. (no nicotinic acid).
[9] abbreviates: increase of IC50 to APO866 with 100 μM nicotinic acid in medium.

For the molecule `N#CN=C(NCCCCCCOc1ccc(Cl)cc1)Nc1ccncc1` [CHS828], the “rescue by nicotinic acid from cytotoxicity” value in [1] is recorded as “minimally rescued”.

Turning to `N#C/N=C(\NCCCCCCC(=O)N(Cc1ccccc1)OC1CCCCC1)Nc1ccncc1` [Compound 1050], the results for the “rescue by nicotinic acid from treatment” value in data set [2] and in [3] were “not similarly protected” and “can rescue”, respectively.

As to `O=C(O)c1cccnc1` [nicotinic acid], in data set [4], the “platelet count upon APO866 treatment, nicotinic acid group compared to control” value was “significantly improved”. Also, in data set [5] (nicotinic acid administered on the same days as APO866), the “protection against APO866-induced death” value was “protects against death even at four times the normal MTD”. For the same molecule, the “effect of nicotinic acid in itself on the survival of the cells” value in data set [6] (100 μM nicotinic acid added to the medium, data not shown) is “no effect”.

Regarding `COCCOCCOCCOCCOC(=O)OC[n+]1ccc(N/C(=N/C#N)NCCCCCCOc2ccc(Cl)cc2)cc1.[Cl-]` [GMX1777], the “effect of nicotinic acid on antitumour effect” value with myeloma is given as “abrogates the antitumour effect”.

`O=C(/C=C/c1cccnc1)NCCCCC1CCN(C(=O)c2ccccc2)CC1` [APO866]: the “inhibition of the enzyme NAPRT” value on NAPRT was “not inhibited”. The values for the LD50 in the data set with PC-3 cells (with nicotinic acid (100 μM) present) and in the data set on PC-3 cells (without nicotinic acid) were 5.5 ± 1.4 nM and 4.8 ± 3.0 nM, respectively. The “increase of lifespan (% ILS, until tumour size of 800 mm3) compared to the control group” value in the data set with A2780 xenografts (15 mg/kg APO866 i.p. twice daily, weekly four-day cycles for two weeks) was 50%. In the data set on A2780 xenografts (15 mg/kg APO866 with 50 mg/kg nicotinic acid), the “anti-proliferative effect with nicotinic acid co-treatment” value was “negates the anti-proliferative effect”. In the data set with A2780 xenografts (50 mg/kg APO866 i.p. and 50 mg/kg nicotinic acid p.o.), the “increase in % ILS” value turned out to be 180%. In the data set on A2780 xenografts (during the study, data not shown), the “body weight between the groups” value was “did not vary significantly”. Also, the survival of mice result in [5] (60 mg/kg APO866 twice daily on four consecutive days combined with 50 mg/kg/day nicotinic acid p.o., until day 26) was “all the mice of the group treated with nicotinic acid survived”. Besides, in data set [5] (setting [8]), the death of mice result was “the majority of the control mice died on day 3 and 4”. Moreover, the “mice that survive the initial toxicity and recover” value in [5] (setting [8]) was 1 of 7. Moreover, the “increase of IC50 values in nicotinic acid containing medium compared to standard medium” value with ML-2 (100 μM nicotinic acid), with HCT-116 (100 μM nicotinic acid) and with A431 (100 μM nicotinic acid) was 40-90 fold throughout. Moreover, the NA rescue effect result is “+ (Rescue effect defined as >39-fold increase of IC50 to APO866 treatment)” with ML-2 (setting [9]); “+ (Rescue effect defined as >39-fold increase of IC50 to APO866 treatment)” in the data set on HCT-116 (setting [9]); “− (No rescue effect defined as <2-fold increase in IC50)” with NYH (setting [9]); “− (No rescue effect defined as <2-fold increase in IC50)” in the data set on A2780 (setting [9]); “+ (Rescue effect defined as >39-fold increase of IC50 to APO866 treatment)” in the data set on A431 (setting [9]). For the same molecule, the “protection against APO866 in medium containing nicotinic acid” value in the data set on NYH (100 μM nicotinic acid) and in the data set with A2780 (100 μM nicotinic acid) was “not protected” in each case. Further, the “effect of vitamin PP compounds on cytotoxic effect” value in the data set on primary lymphocytes and in the data set on primary intestinal cells was “neutralise the cytotoxic effect” throughout. Besides, the “survival compared with controls” value with ML-2 xenografts (15 mg/kg APO866 and nicotinic acid, p=0.14) was “not significantly different from controls”. Further, the “tumour growth compared with untreated controls” value with ML-2 xenografts (50 mg/kg APO866 and nicotinic acid, p=0.002) is listed as “reduced tumour growth”. Moreover, the “effect on tumour size compared with 15 mg/kg APO866 and nicotinic acid” value in the data set on ML-2 xenografts (50 mg/kg APO866 combined with nicotinic acid, p=0.97) is reported as “does not improve the effect on tumour size in a significant way”. Moreover, the effect on tumours entry in the data set with ML-2 xenografts (APO866 only) is recorded as “complete elimination of the tumours before day 10”. The “body weight change between the groups” value in the data set on ML-2 xenografts (data not shown) is “No overall differences in body weight change”. Besides, the “anti-proliferative effect with nicotinic acid co-administered” value in the data set with ML-2 xenografts (same APO866 dose with nicotinic acid) is reported as “partially negated”. In [7], this molecule returned an MTD of 15 mg/kg. In addition, the IC50 in data set [6] (range over the cell lines of the panel, continuous treatment) was 1 to 13 nM. In addition, in the data set with leukemic cells, the “effect of vitamin PP compounds on cytotoxicity” value was “neutralise the cytotoxicity”.
